From ChEMBL document CHEMBL3822357, “New Atglistatin closely related analogues: Synthesis and structure-activity relationship towards adipose triglyceride lipase inhibition” (Eur J Med Chem, 2016) come the findings set out here.

Active and inactive are the calls of the source. The rule behind the calls is not given here.

Assay [1] has as its target T1, Patatin-like phospholipase domain-containing protein 2 (Mus musculus) (UniProt Q8BJ56).
T1 sequence (whole entry): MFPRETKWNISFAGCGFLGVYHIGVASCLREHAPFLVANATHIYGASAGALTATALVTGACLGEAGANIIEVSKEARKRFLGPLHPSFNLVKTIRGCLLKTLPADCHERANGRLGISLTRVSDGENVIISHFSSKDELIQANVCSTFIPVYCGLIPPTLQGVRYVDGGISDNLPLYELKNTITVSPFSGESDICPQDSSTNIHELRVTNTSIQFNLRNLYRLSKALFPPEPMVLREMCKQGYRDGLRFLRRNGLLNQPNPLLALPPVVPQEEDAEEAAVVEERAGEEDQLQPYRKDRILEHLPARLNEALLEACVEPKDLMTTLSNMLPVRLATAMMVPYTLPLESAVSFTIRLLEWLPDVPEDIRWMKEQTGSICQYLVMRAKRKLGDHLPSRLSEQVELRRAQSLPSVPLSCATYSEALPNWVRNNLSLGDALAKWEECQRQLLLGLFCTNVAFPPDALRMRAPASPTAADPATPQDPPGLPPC
Nature of the assay: Inhibition of ATGL in mouse 3T3L1 cells assessed as inhibition of isoproterenol-stimulated lipolysis by measuring reduction in glycerol release in media at 20 uM preincubated for 4 hrs followed by isoproterenol addition measured after 1 hr by colorimetric assay. In kind it is cell-based. The conditions noted are these: 3T3-L1.

Assay [2] concerns the target T1, Patatin-like phospholipase domain-containing protein 2 (Mus musculus). The experiment in a line: Inhibition of ATGL in mouse 3T3L1 cells assessed as inhibition of isoproterenol-stimulated lipolysis by measuring reduction in non-esterified fatty acid release in media at 20 uM preincubated for 4 hrs followed by isoproterenol addition measured after 1 hr by colorimetric assay. It counts as cell-based. The conditions noted are these: 3T3-L1.

Assay [3] deals with T2, Patatin-like phospholipase domain-containing protein 2 (Homo sapiens, UniProt Q96AD5).
T2 sequence (Q96AD5 whole entry): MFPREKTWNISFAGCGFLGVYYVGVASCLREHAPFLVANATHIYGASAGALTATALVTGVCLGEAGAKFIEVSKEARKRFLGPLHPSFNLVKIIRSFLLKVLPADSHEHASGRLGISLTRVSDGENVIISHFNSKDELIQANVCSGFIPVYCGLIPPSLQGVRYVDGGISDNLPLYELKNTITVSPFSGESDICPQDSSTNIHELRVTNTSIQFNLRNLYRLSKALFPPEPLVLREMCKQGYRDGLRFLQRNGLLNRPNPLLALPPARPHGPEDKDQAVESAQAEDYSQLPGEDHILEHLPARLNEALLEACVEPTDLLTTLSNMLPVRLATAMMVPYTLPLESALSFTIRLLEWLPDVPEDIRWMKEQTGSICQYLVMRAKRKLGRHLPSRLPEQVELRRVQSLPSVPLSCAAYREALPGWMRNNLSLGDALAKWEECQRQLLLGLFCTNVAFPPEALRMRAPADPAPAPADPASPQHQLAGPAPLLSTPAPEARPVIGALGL
Nature of the assay: Inhibition of ATGL (unknown origin) overexpressed in Escherichia coli XL-1 cells using [9,10-3H(N)]triolein as substrate incubated for 60 mins by liquid scintillation counting method.

As to `CN(C)c1ccc(-c2ccccc2)cc1`, the inhibition entry in assay [1] and in assay [2] was “inactive” in each case. Turning to `CN(C)C(=O)Nc1cccc(-c2ccccc2)c1`, the inhibition result in assay [1] and in assay [2] was “Active” each time.

On to `CN(C)C(=O)Nc1cccc(-c2cccc(NC(=O)N(C)C)c2)c1`, for which the inhibition result in assay [1] and in assay [2] was “inactive” in each case. With `CN(C)C(=O)Nc1cccc(-c2cccc(N(C)C)c2)c1`, the inhibition result in assay [1] and in assay [2] was “inactive” in each case.

Regarding `CN(C)c1cccc(-c2cccc(N(C)C)c2)c1`, the inhibition result in assay [1] and in assay [2] was “inactive” in each case. Take `CN(C)c1ccc(-c2ccc(N(C)C)cc2)cc1`: the inhibition entry in assay [1] and in assay [2] was “inactive” in each case. Turning to `CN(C)C(=O)Nc1ccc(-c2cccc(N(C)C)c2)cc1`, the inhibition result in assay [1] and in assay [2] was “inactive” each time. Turning to `CN(C)C(=O)Nc1cccc(N(C)C)c1`, the inhibition result in assay [1] and in assay [2] was “inactive” in each case. For the compound `CN(C)C(=O)Nc1ccc(-c2ccc(NC(=O)N(C)C)cc2)cc1`, the inhibition entry in assay [1] and in assay [2] was “inactive” throughout. Consider `CN(C)C(=O)Nc1ccc(N(C)C)cc1`, for which the inhibition entry in assay [1] is “inactive”. `CN(C)C(=O)Nc1ccc(NC(=O)N(C)C)cc1`: the inhibition entry in assay [1] and in assay [2] was “inactive” throughout.

With `CN(C)c1cccc(-c2ccccc2)c1`, the inhibition result in assay [1] and in assay [2] was “inactive” in each case. In the case of `CN(C)C(=O)Nc1ccc(-c2ccccc2)cc1`, in assay [1], the inhibition result was “inactive”. On the same count and under the same terms, next, `CN(C)C(=O)Nc1ccc(-c2ccc(N)cc2)cc1`: “inactive”. `CN(C)c1cccc(N(C)C)c1`: the inhibition result in assay [1] and in assay [2] was “inactive” each time. For the compound `CN(C)c1ccc(N(C)C)cc1`, the inhibition result in assay [1] and in assay [2] was “inactive” in each case.

`CN(C)C(=O)Nc1ccc(-c2ccc(N(C)C)cc2)cc1`: the inhibition entry in assay [1] and in assay [2] was “inactive” throughout. For `CN(C)C(=O)Nc1cccc(-c2ccc(N(C)C)cc2)c1`, the IC50 (commonly the concentration at which inhibition is half-maximal) in assay [3] was found to be 700 nM. The inhibition result in assay [2] was “Active”.
